# Values quoted from earlier work in patent publication US20030021749A1, “Treatment of cancer and other diseases by administration of positron-emitting radiopharmaceuticals” (priority 2000, published 2003).
# Conditions: compared with FDG
compound,measurement,value
"C[N+](C)(CF)CCO [FCH, fluorine-18 fluorocholine]",accumulation in normal brain tissue,does not accumulate in normal brain tissue as readily as FDG
same,concentration in tumor tissues,higher concentration in tumor tissues
